Laboratory results published in US20210198647A1, “Enhancers of Neurolysin Activity” (Texas Tech University System, priority 2018, published 2021).
Marks after values point to notes of the source that are not given here. Square brackets hold non-standard residues; d marks the D form. Peptide text beside a SMILES is read from it. Tyr(3-NO2) = N[CH](Cc1ccc(O)c([N+](=O)[O-])c1)C(=O)O

What was measured:
[1] = target: T1, rat recombinant neurolysin (Rattus norvegicus, UniProt P42676); assay: Enzymatic assay: QFS hydrolysis by rat recombinant neurolysin; type: biochemical; settings: for % activity at 10: 10 μM compound; for % activity at 10 / % activity at (100): compared to vehicle control; for % activity at (100): 100 μM compound; for Vmax: QFS hydrolysis
T1 construct: polyhistidine (N); made in house; host or cells: Escherichia coli (pBAD/His vector)
Procedure: Rat recombinant neurolysin—N-terminal polyhistidine tagged recombinant rat neurolysin was produced in Escherichia coli using a plasmid construct in pBAD/His vector system (Invitrogen) kindly provided by Dr. David W. Rodgers (University of Kentucky) (32,33). Bacterial culture was carried out in Terrific Broth in 2 L Erlenmeyer flasks using an incubator shaker (1-2400, New Brunswick Scientific). Expression was induced by addition of arabinose (1 mM final concentration), the cells were pelleted 3 h after induction and stored at −80° C. freezer. Bacterial pellets were resuspended and lysed in phosphate buffer (20 mM NaH2PO4, 500 mM NaCl, 0.05% Tween-20, pH 8.0) containing 0.25 mg/ml lysozyme, 1 mM phenylmethylsulfonyl fluoride, 0.05 mg/ml DNAse and 0.02 mg/ml RNase, followed by brief sonication. After centrifugation (40,000×g, 20 min at 4° C.) the supernatant was applied to a Ni-NTA Superflow cartridge (Qiagen), followed by washing and elution of recombinant neurolysin with phosphate buffer containing 25 and 250 mM imidazole, respectively. The eluted protein was further purified by size exclusion chromatography using a TSK gel BioAssist G2SWxl column (Tosoh bioscience) in AKTA Purifier FPLC system (GE Healthcare). […] Specific activity of recombinant neurolysin was determined by an enzymatic assay described below.
All assays were initiated by addition of QFS (100 μl assay volume in 96-well plates), and each experimental sample was present in duplicate.
In all experiments, test compounds were incubated with neurolysin for 10 min at 37° C. before addition of the substrate to start the reaction. All test compounds were dissolved in DMSO at 10 to 50 mM stock concentrations.
Statistical Analyses—statistical analyses and curve fitting were conducted with GraphPad Prism 6.0 software. For each enzymatic reaction, slope of the line which represents the initial velocity (Vo) for the reaction progress curve was calculated using the liner regression model of the software (Vo=Slope=Δ fluorescent intensity of the reaction product/Δ time). EC50 values for the modulators were calculated by fitting initial velocity values for hydrolysis of QFS by neurolysin in the presence of varying concentrations of a modulator into a nonlinear regression model for the three-parameter log(stimulator) vs. response equation [Y=Bottom+(Top−Bottom)/(1+10^((Log EC50−X)))].

neprilysin (NEP) = target: T2, neprilysin (NEP) (Homo sapiens, UniProt P08473); assay: Peptidase selectivity: quenched fluorescent substrate hydrolysis by NEP; type: biochemical; settings: 300 μM compound; read-out: inhibited activity of NEP by
T2 construct: purchased R & D systems 1182-ZNC

[2] = target: thimet oligopeptidase (TOP) (Homo sapiens, UniProt P52888); assay: Peptidase selectivity: quenched fluorescent substrate hydrolysis by TOP; settings: read-out: inhibited activity of TOP by
Procedure: Activity of recombinant human TOP was assessed in the same way as for neurolysin, except that the assay was carried out in the presence of 0.1 mM dithiothreitol (37).

[3] = target: T3, angiotensin converting enzyme 2 (ACE2) (Homo sapiens, UniProt Q9BYF1); assay: Peptidase selectivity: quenched fluorescent substrate hydrolysis by ACE2; type: biochemical; settings: 300 μM compound; read-out: inhibited activity of ACE2 by
T3 construct: purchased R & D systems 933-ZN

[4] = target: T4, human recombinant neurolysin (Homo sapiens, UniProt Q9BYT8); assay: Enzymatic assay: QFS hydrolysis by human recombinant neurolysin; type: biochemical
T4 construct: purchased R & D systems 3814-ZN
Procedure: Enzymatic assays—activity of neurolysin was measured in a continuous assay by documenting the increase in fluorescence occurring upon cleavage of a quenched fluorescent substrate (QFS) Mca-Pro-Leu-Gly-Pro-D-Lys(DNP)-OH (Bachem) (25,36). […] All assays were initiated by addition of QFS (100 μl assay volume in 96-well plates), and each experimental sample was present in duplicate.
Screening of test compounds—primary screening of top-ranked 40 compounds (received from NCI DTP) was carried out at 10 and 100 μM final assay concentrations. […] In all experiments, test compounds were incubated with neurolysin for 10 min at 37° C. before addition of the substrate to start the reaction. […]

mouse brain neurolysin = target: T5, mouse brain neurolysin (Mus musculus, UniProt Q91YP2); assay: Enzymatic assay: QFS hydrolysis by mouse brain-purified neurolysin; type: biochemical
T5 construct: P10 mouse forebrains were used for purification of native neurolysin; from tissue; host or cells: P10 mouse forebrain, soluble fraction, size-exclusion fraction
Procedure: In brief, forebrains were homogenized in hypotonic buffer (20 mM NaPO4, pH 7.2) followed by gentle sonication and centrifugation (30 min at 48,000×g at 4° C.). The resulting supernatant was filtered through a 100 kDa cut-off centrifugal filtering unit and concentrated in a 30 kDa cut-off centrifugal filtering unit (Amicon Ultra; Millipore). Neurolysin was semi-purified from the concentrate by size exclusion chromatography using a Superdex 200 Increase 10/300 GL column (GE Healthcare) in AKTA Purifier FPLC system (GE Healthcare). Elution of neurolysin was tracked by the enzymatic assay described below, and the fraction with the highest neurolysin activity was directly used for the experiments.
Enzymatic assays—activity of neurolysin was measured in a continuous assay by documenting the increase in fluorescence occurring upon cleavage of a quenched fluorescent substrate (QFS) Mca-Pro-Leu-Gly-Pro-D-Lys(DNP)-OH (Bachem) (25,36). […]
Statistical Analyses—statistical analyses and curve fitting were conducted with GraphPad Prism 6.0 software. For each enzymatic reaction, slope of the line which represents the initial velocity (Vo) for the reaction progress curve was calculated using the liner regression model of the software (Vo=Slope=Δ fluorescent intensity of the reaction product/Δ time). […]

[5] = target: T6, angiotensin converting enzyme (ACE) (Homo sapiens, UniProt P12821); assay: Peptidase selectivity: quenched fluorescent substrate hydrolysis by ACE; type: biochemical; settings: 300 μM compound; read-out: inhibited activity of ACE by
T6 construct: purchased R & D systems 929-ZN

T1 sequence (P42676 38-704): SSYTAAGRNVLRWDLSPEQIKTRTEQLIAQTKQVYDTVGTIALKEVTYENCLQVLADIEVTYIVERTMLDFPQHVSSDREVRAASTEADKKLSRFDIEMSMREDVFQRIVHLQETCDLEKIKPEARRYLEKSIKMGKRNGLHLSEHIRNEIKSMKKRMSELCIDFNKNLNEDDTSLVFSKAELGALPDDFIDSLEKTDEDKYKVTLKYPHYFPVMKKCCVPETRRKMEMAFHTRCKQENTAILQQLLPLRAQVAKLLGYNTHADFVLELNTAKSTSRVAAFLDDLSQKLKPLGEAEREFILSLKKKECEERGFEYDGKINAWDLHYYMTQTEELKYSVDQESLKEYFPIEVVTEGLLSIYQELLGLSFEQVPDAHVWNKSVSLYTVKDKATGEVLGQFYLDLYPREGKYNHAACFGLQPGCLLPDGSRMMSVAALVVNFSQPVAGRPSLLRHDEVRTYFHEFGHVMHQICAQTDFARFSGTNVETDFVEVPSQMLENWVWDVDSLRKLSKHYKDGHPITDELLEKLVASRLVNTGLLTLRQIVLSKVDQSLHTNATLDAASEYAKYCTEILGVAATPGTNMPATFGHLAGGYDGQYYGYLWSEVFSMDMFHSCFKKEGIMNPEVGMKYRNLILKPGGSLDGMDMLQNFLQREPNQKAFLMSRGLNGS
T5 sequence (Q91YP2 38-704): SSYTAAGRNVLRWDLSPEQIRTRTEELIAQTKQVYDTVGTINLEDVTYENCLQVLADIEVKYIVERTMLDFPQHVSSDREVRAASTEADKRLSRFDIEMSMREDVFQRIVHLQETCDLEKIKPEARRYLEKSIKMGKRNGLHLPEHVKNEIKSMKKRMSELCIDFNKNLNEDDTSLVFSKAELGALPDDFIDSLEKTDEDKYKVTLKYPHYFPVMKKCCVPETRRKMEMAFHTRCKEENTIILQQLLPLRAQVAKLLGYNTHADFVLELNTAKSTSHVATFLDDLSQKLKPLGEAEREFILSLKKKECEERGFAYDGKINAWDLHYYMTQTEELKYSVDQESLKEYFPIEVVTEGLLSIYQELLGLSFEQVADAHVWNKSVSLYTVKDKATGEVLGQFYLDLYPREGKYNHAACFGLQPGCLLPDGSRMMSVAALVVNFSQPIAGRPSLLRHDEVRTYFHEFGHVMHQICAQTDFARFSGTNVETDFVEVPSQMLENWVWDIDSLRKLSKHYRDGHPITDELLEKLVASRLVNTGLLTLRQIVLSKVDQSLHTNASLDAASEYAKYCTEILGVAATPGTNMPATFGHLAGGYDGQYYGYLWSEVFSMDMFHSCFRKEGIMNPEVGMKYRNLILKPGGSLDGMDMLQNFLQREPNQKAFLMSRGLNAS
thimet oligopeptidase (TOP), sequence (P52888 whole entry): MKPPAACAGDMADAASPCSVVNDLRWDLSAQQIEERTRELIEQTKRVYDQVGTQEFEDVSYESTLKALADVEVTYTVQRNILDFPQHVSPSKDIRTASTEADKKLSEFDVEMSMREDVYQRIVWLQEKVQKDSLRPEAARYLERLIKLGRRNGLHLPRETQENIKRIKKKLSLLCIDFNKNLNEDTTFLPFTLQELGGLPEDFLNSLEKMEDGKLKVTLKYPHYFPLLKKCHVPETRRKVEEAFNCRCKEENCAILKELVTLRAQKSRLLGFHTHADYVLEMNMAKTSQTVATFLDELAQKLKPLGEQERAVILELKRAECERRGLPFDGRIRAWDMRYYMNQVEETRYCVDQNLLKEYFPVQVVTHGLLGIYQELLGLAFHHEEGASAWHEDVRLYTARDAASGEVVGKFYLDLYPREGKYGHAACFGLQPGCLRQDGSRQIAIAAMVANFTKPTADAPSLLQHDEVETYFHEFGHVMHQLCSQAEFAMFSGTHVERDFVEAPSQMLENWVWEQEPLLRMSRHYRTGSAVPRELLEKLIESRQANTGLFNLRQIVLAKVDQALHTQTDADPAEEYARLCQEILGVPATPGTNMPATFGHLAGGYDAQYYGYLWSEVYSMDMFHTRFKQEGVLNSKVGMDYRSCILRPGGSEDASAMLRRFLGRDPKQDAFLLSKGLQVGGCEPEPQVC
T3 sequence (Q9BYF1 18-805): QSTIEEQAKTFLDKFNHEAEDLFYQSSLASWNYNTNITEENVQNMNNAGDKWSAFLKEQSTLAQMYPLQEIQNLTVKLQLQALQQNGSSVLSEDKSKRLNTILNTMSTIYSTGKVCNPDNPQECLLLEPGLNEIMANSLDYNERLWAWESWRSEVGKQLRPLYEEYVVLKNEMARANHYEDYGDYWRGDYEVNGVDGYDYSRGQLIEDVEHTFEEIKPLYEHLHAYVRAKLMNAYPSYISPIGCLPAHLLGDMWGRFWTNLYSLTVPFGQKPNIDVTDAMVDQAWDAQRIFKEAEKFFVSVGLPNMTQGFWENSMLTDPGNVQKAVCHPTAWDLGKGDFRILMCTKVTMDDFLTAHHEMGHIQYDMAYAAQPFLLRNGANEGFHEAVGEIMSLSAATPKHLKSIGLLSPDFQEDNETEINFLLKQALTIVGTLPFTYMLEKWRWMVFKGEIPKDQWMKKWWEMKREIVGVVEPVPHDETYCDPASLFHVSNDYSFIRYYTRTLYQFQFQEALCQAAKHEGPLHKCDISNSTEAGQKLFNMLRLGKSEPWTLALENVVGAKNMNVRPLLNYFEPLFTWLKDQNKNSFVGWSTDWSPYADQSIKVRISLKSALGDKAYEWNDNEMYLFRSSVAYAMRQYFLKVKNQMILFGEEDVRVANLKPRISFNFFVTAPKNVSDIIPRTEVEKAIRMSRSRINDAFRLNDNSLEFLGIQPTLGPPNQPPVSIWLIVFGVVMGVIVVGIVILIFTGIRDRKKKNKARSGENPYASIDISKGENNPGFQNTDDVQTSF
T2 sequence (P08473 whole entry): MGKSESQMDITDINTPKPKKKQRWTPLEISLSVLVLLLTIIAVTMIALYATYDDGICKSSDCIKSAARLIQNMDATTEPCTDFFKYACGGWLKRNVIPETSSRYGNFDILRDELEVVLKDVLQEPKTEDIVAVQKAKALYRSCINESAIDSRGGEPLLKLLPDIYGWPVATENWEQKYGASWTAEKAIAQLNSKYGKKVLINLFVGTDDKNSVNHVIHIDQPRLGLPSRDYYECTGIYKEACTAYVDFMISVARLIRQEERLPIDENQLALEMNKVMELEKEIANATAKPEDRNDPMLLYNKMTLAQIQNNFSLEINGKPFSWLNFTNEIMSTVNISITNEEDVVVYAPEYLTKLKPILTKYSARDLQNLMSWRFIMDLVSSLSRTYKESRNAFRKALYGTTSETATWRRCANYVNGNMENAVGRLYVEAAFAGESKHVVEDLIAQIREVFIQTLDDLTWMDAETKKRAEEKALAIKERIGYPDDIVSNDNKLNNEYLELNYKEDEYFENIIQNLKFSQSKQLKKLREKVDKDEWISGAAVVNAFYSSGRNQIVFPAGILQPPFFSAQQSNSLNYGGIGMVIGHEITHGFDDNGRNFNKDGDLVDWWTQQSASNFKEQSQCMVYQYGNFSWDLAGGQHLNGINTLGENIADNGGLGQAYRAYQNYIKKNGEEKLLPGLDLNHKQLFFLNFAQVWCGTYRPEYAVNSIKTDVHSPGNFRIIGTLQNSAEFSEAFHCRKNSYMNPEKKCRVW
T4 sequence (Q9BYT8 38-704): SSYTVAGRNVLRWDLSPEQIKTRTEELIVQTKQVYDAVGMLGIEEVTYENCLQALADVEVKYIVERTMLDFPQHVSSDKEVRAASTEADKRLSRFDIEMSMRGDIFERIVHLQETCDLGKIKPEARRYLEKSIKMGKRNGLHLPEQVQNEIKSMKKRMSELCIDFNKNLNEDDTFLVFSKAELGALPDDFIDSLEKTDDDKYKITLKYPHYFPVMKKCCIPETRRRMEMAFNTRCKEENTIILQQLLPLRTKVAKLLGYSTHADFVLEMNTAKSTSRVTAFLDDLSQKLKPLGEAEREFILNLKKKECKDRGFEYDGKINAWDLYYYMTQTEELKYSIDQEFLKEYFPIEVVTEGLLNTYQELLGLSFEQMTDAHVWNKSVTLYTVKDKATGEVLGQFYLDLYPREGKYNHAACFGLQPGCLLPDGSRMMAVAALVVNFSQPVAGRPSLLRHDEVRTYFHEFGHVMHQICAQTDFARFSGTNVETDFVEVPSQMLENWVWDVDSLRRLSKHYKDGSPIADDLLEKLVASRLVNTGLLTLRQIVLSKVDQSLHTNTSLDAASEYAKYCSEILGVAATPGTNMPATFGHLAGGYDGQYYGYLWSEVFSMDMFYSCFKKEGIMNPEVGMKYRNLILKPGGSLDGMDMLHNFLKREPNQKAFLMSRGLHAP

SMILES | % activity at 10 ([1]; QFS 25 μM) | % activity at (100) ([1]; QFS 25 μM) | also measured
Cl.NC(=O)C(Cc1ccc(O)c([N+](=O)[O-])c1)NC(=O)C(N)Cc1ccccc1 (stereo not shown) [Compound 343028] (H-Phe-[Tyr(3-NO2)]-NH2; configuration not given here) | 98% | 73% | –
CSCCC(N)[P+](=O)O (stereo not shown) [Compound 359097] | 87% | 92% | –
O=C(O)CNC(=O)CNC(=O)c1ccc2ccccc2n1 [Compound 400844] | 104% | 84% | –
CC(NCCN(C)C)C1CC2CCCCN2C1 (stereo not shown) [Compound 600947] | 107% | 105% | –
CCC1COc2nc(=O)c(C=NCCCN(C)C)c(N)n21 (stereo not shown) [Compound 608820] | 102% | 108% | –
O=C1CSC(c2cccnc2)N1CCN1C(=O)CSC1c1cccnc1 (stereo not shown) [Compound 615399] | 108% | 108% | –
NC1=C(O)/C(=N/NS(=O)(=O)c2ccccc2)C(c2ccc3c(c2)OCO3)O1 (stereo not shown) [Compound 640354] | 79% | 76% | –
COC(=O)CCN1CCN(CCO)CC1C (stereo not shown) [Compound 659264] | 104% | 107% | –
N[C@@H](Cc1c[nH]cn1)C(=O)N[C@@H](Cc1ccc(O)cc1)C(=O)O [NlnA#1, L-histidyl-L-tyrosine] (H-His-Tyr-OH) | – | – | inhibition at 300 µM (neprilysin (NEP)): 2.9 ± 4.7%; inhibition at 300 µM [2]: 25.9 ± 0.7%; inhibition at 300 µM [3]: 13.4 ± 2.9%; Emax [4]: 204%; Emax (mouse brain neurolysin): 190%; inhibition at 300 µM [5]: 22.6 ± 2.5%; Km value decreased by ([1]; 40 μM modulator): ~43%; Vmax increased by ([1]; 40 μM modulator): ~29%; Emax ([1]; QFS 15 μM, absence of dynorphin A (1-13)): 292%; Emax ([1]; QFS 15 μM, presence of dynorphin A (1-13) 1 μM): 238%; Emax ([1]; QFS 25 μM, neurolysin 0.3 nM, 100% = no compound): 235%; Vmax ([1]; rNln + 40 μM modulator): 124.2*** FLU/ng protein per min; Vmax ([1]; rNln + 100 μM modulator): 164.8*** FLU/ng protein per min; activity at 10 µM ([1]; read-out: % activity at 10): 121%; activity at 100 µM ([1]; read-out: % activity at (100)): 226%
